According to US20040076590A1, “Antibacterial toothpaste and mouthwash formulations” (priority 2002, published 2004):

Tests used:
[1] = test system: Stearns strain of B. anthracis; format: cell-based, Bacillus anthracis
[2] = test system: Ames strain of B. anthracis; format: cell-based, Bacillus anthracis
[3] = test system: Six strains of Bacillus species; assay: Nathans Agar Well Diffusion technique, 3 replicate assays; format: cell-based; conditions: for average zone of inhibition: average over Bacillus strains tested
S. epidermidis = assay: d-limonene inoculation assay (phenol-coefficient), subculture at 24/48/72 hr; format: cell-based, Staphylococcus epidermidis; parameters: key: NG = no growth; conditions: >10^5 CFU/ml in 2 ml d-limonene
K. pneumoniae = assay: as above; format: cell-based, Klebsiella pneumoniae; parameters: key: NG = no growth; conditions: >10^5 CFU/ml in 2 ml d-limonene
P. aeruginosa = assay: as above; format: cell-based, Pseudomonas aeruginosa; parameters: key: NG = no growth; conditions: >10^5 CFU/ml in 2 ml d-limonene
S. maltophilia = format: cell-based, Stenotrophomonas maltophila; parameters: key: NG = no growth
E. coli = assay: d-limonene inoculation assay (phenol-coefficient), subculture at 24/48/72 hr; format: cell-based, Escherichia coli; parameters: key: NG = no growth; conditions: >10^5 CFU/ml in 2 ml d-limonene
E. faecalis = assay: as above; format: cell-based, Enterococcus faecalis; parameters: key: NG = no growth; conditions: >10^5 CFU/ml in 2 ml d-limonene
Streptococcus pyogenes = format: cell-based
S. marcescens = format: cell-based, Serratia marcescens; parameters: key: NG = no growth
S. aureus = assay: d-limonene inoculation assay (phenol-coefficient), subculture at 24/48/72 hr; format: cell-based, Staphylococcus aureus; parameters: key: NG = no growth; conditions: >10^5 CFU/ml in 2 ml d-limonene
Ent. cloacae = format: cell-based, Enterobacter cloacae; parameters: key: NG = no growth
Streptococcus mutans = format: cell-based
[4] = test system: other beta hemolytic streptococci; format: cell-based
Ac. baum/haemo = assay: d-limonene inoculation assay (phenol-coefficient), subculture at 24/48/72 hr; format: cell-based, Acinetobacter baummii/haemolyticus; parameters: key: NG = no growth; conditions: >10^5 CFU/ml in 2 ml d-limonene
E. faecium = assay: as above; format: cell-based, Enterococcus faecium; parameters: key: NG = no growth; conditions: >10^5 CFU/ml in 2 ml d-limonene

SMILES: O=[N+]([O-])[O-].[Ag+] [AgNO3, silver nitrate]
- average inhibition zone [1]: 18 mm
- zone of inhibition [2]: 16 mm
- average zone of inhibition [3]: 16 mm

SMILES: NCc1ccc(S(N)(=O)=O)cc1 [mafenide acetate]
- average inhibition zone [1]: 38 mm
- susceptibility of the strain to the product [1]: susceptible
- susceptibility of the strain to the product [2]: susceptible
- zone of inhibition [2]: 34 mm
- average zone of inhibition [3]: 36 mm

SMILES: C/C(=C\C(=O)OCCCCCCCCC(=O)O)C[C@@H]1OC[C@H](C[C@@H]2O[C@H]2[C@@H](C)[C@H](C)O)[C@@H](O)[C@H]1O [Bactroban]
- average inhibition zone [1]: 45 mm
- susceptibility of the strain to the product [1]: susceptible
- susceptibility of the strain to the product [2]: susceptible
- zone of inhibition [2]: 35 mm
- average zone of inhibition [3]: 46 mm

SMILES: C=C(C)[C@H]1CC=C(C)CC1 [d-limonene]
- Growth at 24 hr (S. epidermidis; 24 hr): NG
- Growth at 48 hr (S. epidermidis; 48 hr): NG
- Growth at 72 hr (S. epidermidis; 72 hr): NG
- Growth at 24 hr (K. pneumoniae; 24 hr): NG
- Growth at 48 hr (K. pneumoniae; 48 hr): NG
- Growth at 72 hr (K. pneumoniae; 72 hr): NG
- average inhibition zone [1]: 30 mm
- Growth at 24 hr (P. aeruginosa; 24 hr): NG
- Growth at 48 hr (P. aeruginosa; 48 hr): NG
- Growth at 72 hr (P. aeruginosa; 72 hr): NG
- Growth at 24 hr (S. maltophilia; 24 hr): NG
- Growth at 48 hr (S. maltophilia; 48 hr): NG
- Growth at 72 hr (S. maltophilia; 72 hr): NG
- Growth at 24 hr (E. coli; 24 hr): NG
- Growth at 48 hr (E. coli; 48 hr): NG
- Growth at 72 hr (E. coli; 72 hr): NG
- zone of inhibition [2]: 21 mm
- Growth at 24 hr (E. faecalis; 24 hr): NG
- Growth at 48 hr (E. faecalis; 48 hr): NG
- Growth at 72 hr (E. faecalis; 72 hr): NG
- eradication of the pathogen (Streptococcus pyogenes): effective in eradicating
- average zone of inhibition [3]: 21 mm
- Growth at 24 hr (S. marcescens; 24 hr): NG*
- Growth at 48 hr (S. marcescens; 48 hr): NG
- Growth at 72 hr (S. marcescens; 72 hr): NG
- Growth at 24 hr (S. aureus; 24 hr): NG*
- Growth at 48 hr (S. aureus; 48 hr): NG
- Growth at 72 hr (S. aureus; 72 hr): NG
- Growth at 24 hr (Ent. cloacae; 24 hr): NG
- Growth at 48 hr (Ent. cloacae; 48 hr): NG
- Growth at 72 hr (Ent. cloacae; 72 hr): NG
- eradication of the pathogen (Streptococcus mutans): effective in eradicating
- eradication of the pathogen [4]: effective in eradicating
- Growth at 24 hr (Ac. baum/haemo; 24 hr): NG
- Growth at 48 hr (Ac. baum/haemo; 48 hr): NG
- Growth at 72 hr (Ac. baum/haemo; 72 hr): NG
- Growth at 24 hr (E. faecium; 24 hr): NG
- Growth at 48 hr (E. faecium; 48 hr): NG
- Growth at 72 hr (E. faecium; 72 hr): NG

SMILES: NC(=O)N/N=C/c1ccc([N+](=O)[O-])o1 [Furacin, nitrofurazone]
- average inhibition zone [1]: 33 mm
- average zone of inhibition [3]: 35 mm

SMILES: OCl [NaOCl, sodium hypochlorite]
- susceptibility of the strain to the product [1]: susceptible to all products tested except
- zone of inhibition [2]: no zones of inhibition
- average zone size ([3]; only inhibited P. polymyxa, B. sphaericus and B. cereus): 16 mm
